Data as given in patent US6812229B1, “Carbamate derivative and agricultural/horticultural fungicide” (Kumiai Chemical Industry Co., Ltd., priority 1999, dated 2004).

Tests used:
[1] = test system: Erysiphe graminis; experiment: Test for preventive effect on wheat powdery mildew; assay type: in vivo; conditions: wheat seedlings (Norin-61-go), two-leaf stage, 500 ppm active ingredient, wettable powder, total diseased area of first leaves 10 days after inoculation
Method: 10 Wheat seeds (variety: Norin-61-go) were sown in each plastic pot having a diameter of 6 cm, and grown in a greenhouse. Wheat seedlings which reached a two-leaf stage were treated with 10 ml per pot of aqueous solutions of wettable powders prepared in accordance with Formulation Example 2, at a concentration of 500 ppm in terms of the active ingredients, and dried in the air. Then, the seedlings were inoculated with Erysiphe graminis spore and controlled in a greenhouse. 10 Days after the inoculation, the total diseased area of the first leaves in each pot was observed and evaluated on the basis of the standards shown in Table 21.

[2] = test system: Septoria nodorum; experiment: Test for preventive effect on Septoria leaf blotch of wheat; assay type: in vivo; conditions: wheat seedlings (Norin-61-go), two-leaf stage, 50 ppm active ingredient, 10 ml per pot, evaluated 10 days after inoculation with Septoria nodorum
Text: [table] 10 Wheat seeds (variety: Norin-61-go) were sown in each plastic pot having a diameter of 6 cm, and grown in a greenhouse. […] Then, the seedlings were inoculated with Septoria nodorum […] controlled in a greenhouse. 10 Days after the inoculation, the total diseased area of the first leaves in each pot was observed and evaluated on the basis of the standards shown in Table 21.

[3] = test system: Botrytis cinerea; experiment: Test for preventive effect on cucumber gray mold; assay type: in vivo; conditions: cucumber seedlings (Sagami-hanziro), cotyledon stage, 500 ppm active ingredient, 10 ml per pot, evaluated 3 days after inoculation with Botrytis cinerea, 22° C moist chamber
Method: 4 cucumber seeds (variety: Sagami-hanziro) were sown in each plastic pot having a diameter of 6 cm and grown in a greenhouse. Cucumber young seedlings which reached a cotyledon stage were treated with 10 ml per pot of aqueous solutions of wettable powders prepared in accordance with Formulation Example 2, at a concentration of 500 ppm in terms of the active ingredients and dried in the air. Then, the seedlings were inoculated with Botrytis cinerea spore by putting a paper disc soaked with the spore suspension on the surface of the cucumber cotyledons, and the seedlings were immediately placed in a moist chamber of 22° C. 3 Days after the inoculation, the total diseased area of the cotyledons in each pot was observed and evaluated on the basis of the standards shown in Table 24.

| SMILES | Evaluation [1] | Evaluation (total diseased area of the first leaves) [2] | melting point | Evaluation (total diseased area of the cotyledons) [3] |
| --- | --- | --- | --- | --- |
| COC(=O)NCc1cc(C(C)=NOCc2ccccc2)ccc1Cl (single isomer, unassigned) [A-80] | A (No diseased area) | A (No diseased area) | – | – |
| COC(=O)NCc1cc(C(C)=NOCc2cccc(Cl)c2)ccc1Cl (single isomer, unassigned) [A-85] | A (No diseased area) | B (Diseased area of less than 5%) | – | – |
| COC(=O)NCc1cc(C(C)=NOCc2ccc(Cl)cc2)ccc1Cl (single isomer, unassigned) [A-86] | A (No diseased area) | – | – | – |
| CON=C(C#N)c1ccc(Cl)c(CNC(=O)OC)c1 [A-3, 2-[4-chloro-3-(methoxycarbonylaminomethyl)phenyl]-2-methoxyiminoacetonitrile] | A (No diseased area) | B (Diseased area of less than 5%) | 104 to 107 °C | – |
| C=CCON=C(C)c1cccc(CNC(=O)OC)c1 [A-37] | A (No diseased area) | – | – | – |
| COC(=O)NCc1cccc(C(C)=NOCc2ccccc2)c1 [A-38] | A (No diseased area) | – | – | – |
| CCON=C(C)c1cccc(CNC(=O)OC)c1 [A-39] | A (No diseased area) | – | – | – |
| CON=C(C)c1cccc(CNC(=O)OC)c1 [A-40, Methyl N-[3-(1-methoxyiminoethyl)benzyl]carbamate] | A (No diseased area) | – | – | – |
| C=CCON=C(c1ccccc1)c1cccc(CNC(=O)OC)c1 [A-41] | B (Diseased area of less than 5%) | – | – | – |
| CON=C(c1ccccc1)c1cccc(CNC(=O)OC)c1 [A-42] | A (No diseased area) | – | – | – |
| CCON=C(c1ccccc1)c1cccc(CNC(=O)OC)c1 [A-43] | A (No diseased area) | – | – | – |
| COC(=O)NCc1cc(C(C)=NO)ccc1Cl [A-45, Methyl N-[2-chloro-5-(1-hydroxyiminoethyl)benzyl]carbamate] | – | – | 124 to 127 °C | – |
| CON=C(C)c1ccc(Cl)c(CNC(=O)OC)c1 [A-46] | A (No diseased area) | – | – | – |
| CCON=C(C)c1ccc(Cl)c(CNC(=O)OC)c1 [A-49] | A (No diseased area) | – | – | – |
| CCCON=C(C)c1ccc(Cl)c(CNC(=O)OC)c1 [A-50] | A (No diseased area) | – | – | – |
| COC(=O)NCc1cc(C(C)=NOC(C)C)ccc1Cl [A-51] | A (No diseased area) | B (Diseased area of less than 5%) | – | – |
| COC(=O)NCc1cc(C(C)=NOC(C)(C)C)ccc1Cl [A-55] | A (No diseased area) | – | – | – |
| C=CCON=C(C)c1ccc(Cl)c(CNC(=O)OC)c1 [A-58] | A (No diseased area) | B (Diseased area of less than 5%) | – | – |
| C#CCON=C(C)c1ccc(Cl)c(CNC(=O)OC)c1 [A-61] | A (No diseased area) | B (Diseased area of less than 5%) | – | – |

| SMILES | Evaluation [1] | Evaluation (total diseased area of the first leaves) [2] | melting point | Evaluation (total diseased area of the cotyledons) [3] |
| --- | --- | --- | --- | --- |
| COC(=O)NCc1cc(C(C)=NOCCCc2ccccc2)ccc1Cl [A-62] | A (No diseased area) | B (Diseased area of less than 5%) | – | – |
| COC(=O)NCc1cc(C(C)=NOCC(=O)OC(C)(C)C)ccc1Cl [A-64] | B (Diseased area of less than 5%) | A (No diseased area) | – | – |
| COC(=O)NCc1cc(C(C)=NOCc2ccccc2F)ccc1Cl [A-81] | A (No diseased area) | B (Diseased area of less than 5%) | – | – |
| COC(=O)NCc1cc(C(C)=NOCc2cccc(F)c2)ccc1Cl [A-82] | A (No diseased area) | B (Diseased area of less than 5%) | – | – |
| COC(=O)NCc1cc(C(C)=NOCc2ccc(F)cc2)ccc1Cl [A-83, Methyl N-{2-chloro-5-[1-(4-fluorobenzyloxyimino)ethyl]benzyl}carbamate] | A (No diseased area) | A (No diseased area) | 101 to 103 °C | – |
| COC(=O)NCc1cc(C(C)=NOCc2ccccc2Br)ccc1Cl [A-87] | A (No diseased area) | B (Diseased area of less than 5%) | – | – |
| COC(=O)NCc1cc(C(C)=NOCc2cccc(Br)c2)ccc1Cl [A-88] | A (No diseased area) | B (Diseased area of less than 5%) | – | – |
| COC(=O)NCc1cc(C(C)=NOCc2ccc(Br)cc2)ccc1Cl [A-89] | A (No diseased area) | B (Diseased area of less than 5%) | – | – |
| COC(=O)NCc1cc(C(C)=NOCc2ccccc2C)ccc1Cl [A-90] | A (No diseased area) | A (No diseased area) | – | – |
| COC(=O)NCc1cc(C(C)=NOCc2cccc(C)c2)ccc1Cl [A-91] | A (No diseased area) | B (Diseased area of less than 5%) | – | – |
| COC(=O)NCc1cc(C(C)=NOCc2ccc(C)cc2)ccc1Cl [A-92] | A (No diseased area) | B (Diseased area of less than 5%) | – | – |
| COC(=O)NCc1cc(C(C)=NOCc2ccc(C(C)(C)C)cc2)ccc1Cl [A-98] | A (No diseased area) | A (No diseased area) | – | – |
| COC(=O)NCc1cc(C(C)=NOCc2ccccc2C(F)(F)F)ccc1Cl [A-99] | A (No diseased area) | B (Diseased area of less than 5%) | – | – |
| COC(=O)NCc1cc(C(C)=NOCc2cccc(C(F)(F)F)c2)ccc1Cl [A-100] | A (No diseased area) | – | – | – |
| COC(=O)NCc1cc(C(C)=NOCc2ccc(C(F)(F)F)cc2)ccc1Cl [A-101] | A (No diseased area) | – | – | – |
| COC(=O)NCc1cc(C=NOCc2ccccc2)ccc1C [A-112] | A (No diseased area) | B (Diseased area of less than 5%) | – | – |
| COC(=O)NCc1cc(C(C)=NOCc2ccccc2)ccc1C [A-113] | A (No diseased area) | A (No diseased area) | – | – |
| CON=C(C)c1cccc(CON=C(C)c2ccc(Cl)c(CNC(=O)OC)c2)c1 [A-291] | – | A (No diseased area) | – | 3 |
| COC(=O)NCc1cc(C(C)=NOCc2cccc(C)n2)ccc1C [A-434, Methyl N-{2-methyl-5-[1-(6-methylpyridin-2-ylmethoxy)iminoethyl]benzyl}carbamate] | – | – | 72 to 75 °C | – |
